Experimental data published in paper PMC3602277 (Bioorganic & medicinal chemistry, 2013).
Blank lines part the entries; values can stand above or below the compound they belong to.

Tests used:
[1] = system: A431 cancer cells
[2] = system: EGFR; settings: read-out: EGFR IC50; cited from earlier work
[3] = target: VEGFR-2 (Homo sapiens, UniProt P35968); assay: Phosphotyrosine ELISA cytoblot, VEGFR-2 kinase inhibition in whole cells; format: cell-based; settings: for fold less active than standard 20 in VEGFR-2 inhibition assay: ratio of IC50 vs semaxanib 20
[4] = system: A431 cancer cells; assay: A431 cytotoxicity, CYQUANT cell proliferation assay; settings: ratio of IC50 vs cisplatin 23
[5] = target: PDGFR-β (Homo sapiens, UniProt P09619); assay: Phosphotyrosine ELISA cytoblot, PDGFR-β kinase inhibition in whole cells; format: cell-based
[6] = target: EGFR (Homo sapiens, UniProt P00533); assay: Phosphotyrosine ELISA cytoblot, EGFR kinase inhibition in whole cells; format: cell-based
EGFR (Homo sapiens, UniProt P00533), sequence (P00533 25-1210): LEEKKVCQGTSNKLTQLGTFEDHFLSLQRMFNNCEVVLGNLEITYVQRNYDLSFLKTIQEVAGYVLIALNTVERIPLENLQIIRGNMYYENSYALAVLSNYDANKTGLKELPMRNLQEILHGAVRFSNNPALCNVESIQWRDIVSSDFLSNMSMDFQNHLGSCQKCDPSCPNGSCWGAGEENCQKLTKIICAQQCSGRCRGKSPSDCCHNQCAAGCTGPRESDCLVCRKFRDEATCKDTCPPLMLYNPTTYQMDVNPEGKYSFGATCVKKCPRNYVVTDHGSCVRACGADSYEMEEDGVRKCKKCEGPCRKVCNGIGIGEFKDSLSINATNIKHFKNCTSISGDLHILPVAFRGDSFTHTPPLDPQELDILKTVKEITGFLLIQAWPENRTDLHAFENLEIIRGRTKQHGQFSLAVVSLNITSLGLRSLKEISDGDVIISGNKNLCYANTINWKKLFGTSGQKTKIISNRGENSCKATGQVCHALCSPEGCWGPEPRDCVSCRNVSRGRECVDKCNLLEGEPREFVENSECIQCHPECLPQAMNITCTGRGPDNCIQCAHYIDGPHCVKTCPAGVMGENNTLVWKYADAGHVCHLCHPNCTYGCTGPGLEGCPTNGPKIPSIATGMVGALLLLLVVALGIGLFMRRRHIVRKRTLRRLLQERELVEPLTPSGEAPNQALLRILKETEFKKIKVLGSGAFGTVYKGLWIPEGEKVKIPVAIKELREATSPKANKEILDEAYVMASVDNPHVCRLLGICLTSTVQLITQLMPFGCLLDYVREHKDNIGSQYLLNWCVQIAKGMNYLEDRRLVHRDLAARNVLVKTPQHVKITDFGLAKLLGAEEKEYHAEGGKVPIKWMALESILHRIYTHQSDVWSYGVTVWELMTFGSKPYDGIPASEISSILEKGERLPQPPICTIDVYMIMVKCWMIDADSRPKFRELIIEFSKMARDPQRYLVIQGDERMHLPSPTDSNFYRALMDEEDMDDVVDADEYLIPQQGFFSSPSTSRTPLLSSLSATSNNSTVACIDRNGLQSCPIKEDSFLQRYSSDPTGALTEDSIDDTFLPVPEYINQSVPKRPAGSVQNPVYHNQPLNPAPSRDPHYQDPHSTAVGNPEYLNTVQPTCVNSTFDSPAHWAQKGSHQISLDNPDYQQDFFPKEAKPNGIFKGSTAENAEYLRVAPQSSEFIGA

VEGFR-2, sequence (P35968 20-1356): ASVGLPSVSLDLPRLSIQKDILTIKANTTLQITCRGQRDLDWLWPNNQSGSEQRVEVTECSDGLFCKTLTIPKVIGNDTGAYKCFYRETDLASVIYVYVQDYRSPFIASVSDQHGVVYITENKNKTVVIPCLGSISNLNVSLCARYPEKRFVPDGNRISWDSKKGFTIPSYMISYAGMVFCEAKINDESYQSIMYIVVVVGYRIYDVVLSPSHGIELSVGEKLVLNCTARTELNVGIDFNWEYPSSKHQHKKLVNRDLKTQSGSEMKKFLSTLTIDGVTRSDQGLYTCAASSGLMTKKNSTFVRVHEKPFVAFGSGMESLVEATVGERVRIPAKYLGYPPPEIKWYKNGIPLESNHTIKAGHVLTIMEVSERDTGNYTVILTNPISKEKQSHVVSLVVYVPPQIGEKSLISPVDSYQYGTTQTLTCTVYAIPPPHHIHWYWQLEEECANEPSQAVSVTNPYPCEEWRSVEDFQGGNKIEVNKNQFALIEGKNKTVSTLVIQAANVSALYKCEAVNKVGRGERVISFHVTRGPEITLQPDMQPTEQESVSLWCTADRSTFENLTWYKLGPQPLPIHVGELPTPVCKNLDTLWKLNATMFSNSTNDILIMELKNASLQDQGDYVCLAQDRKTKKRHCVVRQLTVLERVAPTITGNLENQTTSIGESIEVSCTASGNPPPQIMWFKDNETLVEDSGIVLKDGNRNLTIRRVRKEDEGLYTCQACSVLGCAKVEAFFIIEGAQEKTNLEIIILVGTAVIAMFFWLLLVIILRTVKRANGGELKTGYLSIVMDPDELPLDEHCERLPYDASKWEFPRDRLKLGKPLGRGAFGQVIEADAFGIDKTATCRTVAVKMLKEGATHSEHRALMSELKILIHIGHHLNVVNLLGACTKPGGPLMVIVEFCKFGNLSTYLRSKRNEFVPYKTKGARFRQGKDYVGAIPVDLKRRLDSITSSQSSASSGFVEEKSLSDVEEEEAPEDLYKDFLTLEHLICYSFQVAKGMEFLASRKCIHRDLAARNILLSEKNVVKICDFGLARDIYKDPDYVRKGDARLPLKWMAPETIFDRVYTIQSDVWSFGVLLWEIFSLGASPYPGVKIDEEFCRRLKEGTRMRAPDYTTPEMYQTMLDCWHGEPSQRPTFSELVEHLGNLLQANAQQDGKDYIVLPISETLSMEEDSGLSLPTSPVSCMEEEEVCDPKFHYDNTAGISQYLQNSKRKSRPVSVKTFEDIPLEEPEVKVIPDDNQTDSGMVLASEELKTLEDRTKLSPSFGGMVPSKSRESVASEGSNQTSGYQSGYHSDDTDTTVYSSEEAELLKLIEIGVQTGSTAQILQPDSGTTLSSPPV
PDGFR-β, sequence (P09619 33-1106): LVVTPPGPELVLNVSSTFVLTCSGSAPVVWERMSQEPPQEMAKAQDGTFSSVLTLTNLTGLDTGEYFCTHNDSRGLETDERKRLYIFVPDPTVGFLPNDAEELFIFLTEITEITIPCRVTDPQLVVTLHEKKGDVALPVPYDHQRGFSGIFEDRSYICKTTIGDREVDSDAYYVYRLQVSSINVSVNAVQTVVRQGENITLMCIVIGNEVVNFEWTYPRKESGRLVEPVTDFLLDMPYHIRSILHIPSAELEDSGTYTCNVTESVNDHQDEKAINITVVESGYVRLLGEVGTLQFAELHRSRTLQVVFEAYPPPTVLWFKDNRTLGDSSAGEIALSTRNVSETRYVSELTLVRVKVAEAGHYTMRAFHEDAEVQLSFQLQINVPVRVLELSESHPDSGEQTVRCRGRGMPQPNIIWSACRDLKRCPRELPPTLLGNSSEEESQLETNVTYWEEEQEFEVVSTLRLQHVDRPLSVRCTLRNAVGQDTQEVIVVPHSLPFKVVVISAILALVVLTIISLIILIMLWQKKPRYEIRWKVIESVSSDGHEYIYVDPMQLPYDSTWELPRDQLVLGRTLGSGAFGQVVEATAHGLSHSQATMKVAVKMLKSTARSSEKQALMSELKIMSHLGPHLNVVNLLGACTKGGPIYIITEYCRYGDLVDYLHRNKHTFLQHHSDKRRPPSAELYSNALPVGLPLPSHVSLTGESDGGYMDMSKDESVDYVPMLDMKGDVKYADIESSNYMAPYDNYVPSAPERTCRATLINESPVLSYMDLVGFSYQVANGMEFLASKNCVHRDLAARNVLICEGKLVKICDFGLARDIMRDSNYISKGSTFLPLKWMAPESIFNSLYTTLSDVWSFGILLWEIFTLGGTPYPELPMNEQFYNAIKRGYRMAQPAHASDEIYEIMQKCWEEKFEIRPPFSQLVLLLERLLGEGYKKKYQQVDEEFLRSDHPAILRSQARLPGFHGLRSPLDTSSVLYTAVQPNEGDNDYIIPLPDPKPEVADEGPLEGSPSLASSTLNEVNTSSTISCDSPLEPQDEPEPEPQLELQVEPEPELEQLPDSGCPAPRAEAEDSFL

fold less active than standard 20 in VEGFR-2 inhibition assay [3]: 2 fold
SMILES: CC(C)(C)C(=O)Nc1nc(Nc2ccc(Cl)cc2)c2c(n1)[nH]c1cccc(Cl)c12 [Compound 11, N-{5-chloro-4-[(4-chlorophenyl)amino]-9H-pyrimido[4,5-b]indol-2-yl}-2,2-dimethylpropanamide]
fold less potent than standard 23 in A431 cytotoxicity assay [4]: 5 fold

fold less active than standard 20 in VEGFR-2 inhibition assay [3]: about 2.5 fold
fold less potent than standard 21 in EGFR inhibition assay ([6]; ratio of IC50 vs PD153035 21): 150 fold
fold less active than erlotinib in EGFR inhibition assay ([6]; ratio of IC50 vs erlotinib): 25 fold
SMILES: CC(C)(C)C(=O)Nc1nc(Nc2cccc(F)c2)c2c(n1)[nH]c1cccc(Cl)c12 [Compound 13, N-{5-chloro-4-[(3-fluorophenyl)amino]-9H-pyrimido[4,5-b]indol-2-yl}-2,2-dimethylpropanamide]

fold less active than standard 20 in VEGFR-2 inhibition assay [3]: ~3.5 fold
SMILES: COc1cccc(Nc2nc(NC(=O)C(C)(C)C)nc3[nH]c4cccc(Cl)c4c23)c1 [Compound 14, N-{5-chloro-4-[(3-methoxyphenyl)amino]-9H-pyrimido[4,5-b]indol-2-yl}-2,2-dimethylpropanamide]

Second part, the compound before the results:

SMILES: [NH2][Pt]([NH2])([Cl])[Cl] [Cisplatin (23), cisplatin]
IC50 [1]: 10.6 ± 2.9 µM

SMILES: Clc1cccc(Nc2ncnc3[nH]c4ccccc4c23)c1 [Compound 1]
IC50 [2]: 0.006 µM

SMILES: Nc1nc(Nc2ccc(Cl)cc2)c2c(n1)[nH]c1cccc(Cl)c12 [Compound 5, 5-chloro-N^4-(4-chlorophenyl)-9H-pyrimido[4,5-b]indole-2,4-diamine]
fold more potent than erlotinib in VEGFR-2 inhibition assay ([3]; ratio of IC50 vs erlotinib): 9.4 fold
fold more potent than sunitinib in VEGFR-2 inhibition assay ([3]; ratio of IC50 vs sunitinib): 1.4 fold
potency relative to standard 20 in VEGFR-2 inhibition assay ([3]; vs semaxanib 20): equipotent
fold less potent than standard 23 in A431 cytotoxicity assay [4]: 4 fold

SMILES: COc1cccc(Nc2nc(N)nc3[nH]c4cccc(Cl)c4c23)c1 [Compound 8, 5-chloro-N^4-(3-methoxyphenyl)-9H-pyrimido[4,5-b]indole-2,4-diamine]
fold less active than corresponding 2-amino pivaloyl compound, VEGFR-2 ([3]; 7 vs 13, 8 vs 14): ~1.7 fold
fold less active than standard 20 in VEGFR-2 inhibition assay [3]: 7 fold
fold less active than standard 22 in PDGFR-β inhibition assay ([5]; ratio of IC50 vs DMBI 22): about 13.5 fold
fold less active than erlotinib in PDGFR-β inhibition assay ([5]; ratio of IC50 vs erlotinib): 4 fold

SMILES: CC(C)c1ccc(Nc2nc(NC(=O)C(C)(C)C)nc3[nH]c4cccc(Cl)c4c23)cc1 [Compound 10, N-{5-chloro-4-[(4-isopropylphenyl)amino]-9H-pyrimido[4,5-b]indol-2-yl}-2,2-dimethylpropanamide]
fold less active than standard 20 in VEGFR-2 inhibition assay [3]: ~4 fold
